This note sets out measurements from publication PMC4704483 (2015).

For the experiment, the system named is (CUG)100, internal fluorescein-labeled (RNA, repeat) CUGCUGCUGCUGCUGCUGCUGCUGCUGCUGCUGCUGCUGCUGCUGCUGCUGCUGCUGCUGCUGCUGCUGCUGCUGCUGCUGCUGCUGCUGCUGCUGCUGCUGCUGCUGCUGCUGCUGCUGCUGCUGCUGCUGCUGCUGCUGCUGCUGCUGCUGCUGCUGCUGCUGCUGCUGCUGCUGCUGCUGCUGCUGCUGCUGCUGCUGCUGCUGCUGCUGCUGCUGCUGCUGCUGCUGCUGCUGCUGCUGCUGCUGCUGCUGCUGCUGCUGCUGCUGCUGCUGCUGCUGCUGCUGCUGCUGCUGCUG
The experiment can be described thus: fluorescence titration. The settings on record: data not shown.

With `NC[C@@H]1O[C@H](O[C@H]2[C@@H](O)[C@H](O[C@@H]3[C@@H](O)[C@H](N)C[C@H](N)[C@H]3O[C@H]3O[C@H](CN)[C@@H](O)[C@H](O)[C@H]3N)O[C@@H]2CO)[C@H](N)[C@@H](O)[C@@H]1O`, the K d was less than 1 µM.
As to `CC[C@H]1OC(=O)[C@H](C)[C@@H](O[C@H]2C[C@@](C)(OC)[C@@H](O)[C@H](C)O2)[C@H](C)[C@@H](O[C@@H]2O[C@H](C)C[C@H](N(C)C)[C@H]2O)[C@](C)(O)C[C@@H](C)C(=O)[C@H](C)[C@@H](O)[C@]1(C)O`, the K d (salt form not stated) is less than 1 µM.
